The record followed here is paper PMC5765548 (Journal of medicinal chemistry, 2017).

One experiment addresses T1, ALDH1L1 (rat) (Rattus norvegicus, UniProt P28037).
T1 sequence (P28037 1-902): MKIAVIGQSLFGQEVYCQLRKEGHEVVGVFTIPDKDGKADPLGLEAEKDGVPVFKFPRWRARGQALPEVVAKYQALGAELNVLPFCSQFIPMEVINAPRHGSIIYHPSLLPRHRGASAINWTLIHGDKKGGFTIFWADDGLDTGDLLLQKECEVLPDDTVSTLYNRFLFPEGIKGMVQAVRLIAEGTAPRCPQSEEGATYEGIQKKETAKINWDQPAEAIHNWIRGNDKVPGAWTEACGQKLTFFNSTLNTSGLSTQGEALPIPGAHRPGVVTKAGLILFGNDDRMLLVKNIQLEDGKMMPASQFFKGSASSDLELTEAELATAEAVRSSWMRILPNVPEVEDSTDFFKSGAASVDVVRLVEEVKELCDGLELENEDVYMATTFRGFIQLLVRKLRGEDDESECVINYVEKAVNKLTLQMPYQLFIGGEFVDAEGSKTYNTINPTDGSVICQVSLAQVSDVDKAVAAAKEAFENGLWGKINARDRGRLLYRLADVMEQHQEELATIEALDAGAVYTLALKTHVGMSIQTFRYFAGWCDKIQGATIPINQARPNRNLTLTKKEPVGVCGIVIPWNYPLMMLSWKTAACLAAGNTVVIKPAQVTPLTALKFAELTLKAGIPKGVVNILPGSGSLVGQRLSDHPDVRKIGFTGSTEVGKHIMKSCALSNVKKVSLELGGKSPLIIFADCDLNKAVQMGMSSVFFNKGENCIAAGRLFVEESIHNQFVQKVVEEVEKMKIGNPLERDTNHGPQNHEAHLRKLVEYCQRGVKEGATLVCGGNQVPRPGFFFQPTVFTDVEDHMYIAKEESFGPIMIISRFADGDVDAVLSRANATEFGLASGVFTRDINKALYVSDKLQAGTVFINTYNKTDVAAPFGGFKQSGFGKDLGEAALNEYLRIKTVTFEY
Description: ALDH1L1 dehydrogenase activity, NADPH formation at 340 nm. It is filed as biochemical. The settings on record: read-out: IC50 ALDH1L1 (rat); 4 mM propionaldehyde, 500 μM NADP+.

The target of another experiment is T2, ALDH3A1 (Homo sapiens, UniProt P30838).
T2 sequence (P30838 1-453): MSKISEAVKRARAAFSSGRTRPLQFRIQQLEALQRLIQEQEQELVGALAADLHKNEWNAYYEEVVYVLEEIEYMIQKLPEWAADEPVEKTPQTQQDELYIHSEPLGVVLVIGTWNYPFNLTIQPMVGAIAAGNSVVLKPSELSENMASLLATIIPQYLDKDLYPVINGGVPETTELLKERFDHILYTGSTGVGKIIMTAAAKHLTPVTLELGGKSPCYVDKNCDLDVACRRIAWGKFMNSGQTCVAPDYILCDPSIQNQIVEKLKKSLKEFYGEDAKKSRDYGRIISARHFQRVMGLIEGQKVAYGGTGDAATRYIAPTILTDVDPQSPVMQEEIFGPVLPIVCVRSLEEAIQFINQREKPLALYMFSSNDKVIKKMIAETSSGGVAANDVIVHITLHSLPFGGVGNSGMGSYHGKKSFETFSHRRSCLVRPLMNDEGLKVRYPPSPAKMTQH
Briefly: ALDH3A1 dehydrogenase activity. It is filed as biochemical. The settings on record: read-out: IC50 ALDH3A1; 300 μM benzaldehyde, 300 μM NADP+, pH 7.5.

Experiment [1] concerns the target T3, ALDH2 (Homo sapiens, UniProt P05091).
T3 sequence (P05091 18-517): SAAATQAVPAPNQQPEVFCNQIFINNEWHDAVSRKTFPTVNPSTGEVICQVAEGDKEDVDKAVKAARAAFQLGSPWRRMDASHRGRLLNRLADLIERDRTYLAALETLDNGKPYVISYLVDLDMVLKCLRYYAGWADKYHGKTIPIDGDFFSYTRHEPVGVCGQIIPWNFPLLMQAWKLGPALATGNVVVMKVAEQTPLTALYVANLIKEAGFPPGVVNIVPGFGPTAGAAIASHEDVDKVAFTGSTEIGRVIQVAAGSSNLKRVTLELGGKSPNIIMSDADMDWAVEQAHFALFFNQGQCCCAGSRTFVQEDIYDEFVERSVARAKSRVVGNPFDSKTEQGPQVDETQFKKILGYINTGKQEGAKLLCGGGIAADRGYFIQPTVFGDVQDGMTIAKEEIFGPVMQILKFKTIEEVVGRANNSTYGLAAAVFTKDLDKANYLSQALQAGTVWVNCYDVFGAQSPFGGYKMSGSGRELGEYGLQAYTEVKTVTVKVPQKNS
The conditions noted are these: 1 mM propionaldehyde.

The target of experiment [2] is T4, ALDH1A1 (Homo sapiens, UniProt P00352).
T4 sequence (P00352 1-501): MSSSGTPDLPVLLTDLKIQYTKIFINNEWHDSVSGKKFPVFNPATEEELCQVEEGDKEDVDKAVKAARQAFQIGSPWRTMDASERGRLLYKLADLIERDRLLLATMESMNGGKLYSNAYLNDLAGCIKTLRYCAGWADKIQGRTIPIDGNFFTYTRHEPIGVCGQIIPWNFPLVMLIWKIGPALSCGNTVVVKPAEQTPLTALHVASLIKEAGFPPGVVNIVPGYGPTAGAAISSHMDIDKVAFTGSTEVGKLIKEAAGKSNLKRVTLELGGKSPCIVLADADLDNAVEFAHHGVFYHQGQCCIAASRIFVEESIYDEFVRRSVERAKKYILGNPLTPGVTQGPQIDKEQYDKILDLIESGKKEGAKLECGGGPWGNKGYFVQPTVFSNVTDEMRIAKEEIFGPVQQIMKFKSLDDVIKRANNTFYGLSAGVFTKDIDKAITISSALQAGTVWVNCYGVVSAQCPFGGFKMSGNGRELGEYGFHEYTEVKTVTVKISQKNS
Description: ALDH1A1 dehydrogenase activity, NADH formation at 340 nm. It counts as biochemical. The settings on record: for IC50: read-out: IC50 ALDH1A1, 100 μM propionaldehyde, 200 μM NAD+, 1% DMSO, pH 7.5, 25 °C; for inhibition at 10 µM: read-out: Inhibition of ALDH1A1 at 10 μM.

For experiment [3], the target named is T3, ALDH2. Description: ALDH2 dehydrogenase activity, NADH formation at 340 nm. It counts as biochemical. The settings on record: for Emax: read-out: Max inhibition ALDH2.
The next experiment concerns the target T5, ALDH1A3 (Homo sapiens, UniProt P47895).
T5 sequence (P47895 1-512): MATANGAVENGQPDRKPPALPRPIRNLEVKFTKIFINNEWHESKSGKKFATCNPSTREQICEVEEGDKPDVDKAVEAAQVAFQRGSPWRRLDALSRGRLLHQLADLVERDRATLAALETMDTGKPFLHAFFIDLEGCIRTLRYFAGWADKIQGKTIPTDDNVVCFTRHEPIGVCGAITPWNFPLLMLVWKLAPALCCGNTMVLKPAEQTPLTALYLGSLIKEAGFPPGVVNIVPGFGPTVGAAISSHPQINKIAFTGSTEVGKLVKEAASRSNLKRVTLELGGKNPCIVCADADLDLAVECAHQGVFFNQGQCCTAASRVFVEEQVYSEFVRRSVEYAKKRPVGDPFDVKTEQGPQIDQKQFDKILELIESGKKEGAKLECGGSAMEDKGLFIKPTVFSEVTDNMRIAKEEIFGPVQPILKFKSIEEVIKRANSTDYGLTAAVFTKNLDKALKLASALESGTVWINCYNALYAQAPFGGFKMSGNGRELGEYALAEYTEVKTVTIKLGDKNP
The conditions noted are these: read-out: IC50 ALDH1A3; 100 μM propionaldehyde, 200 μM NAD+, 1% DMSO, pH 7.5, 25 °C.

The target of experiment [4] is T4, ALDH1A1. The settings on record: for Mode of inhibition of ALDH1A1 versus varied NAD+: 1 mM propionaldehyde.
In the next experiment the target is T6, ALDH1B1 (Homo sapiens, UniProt P30837).
T6 sequence (P30837 18-517): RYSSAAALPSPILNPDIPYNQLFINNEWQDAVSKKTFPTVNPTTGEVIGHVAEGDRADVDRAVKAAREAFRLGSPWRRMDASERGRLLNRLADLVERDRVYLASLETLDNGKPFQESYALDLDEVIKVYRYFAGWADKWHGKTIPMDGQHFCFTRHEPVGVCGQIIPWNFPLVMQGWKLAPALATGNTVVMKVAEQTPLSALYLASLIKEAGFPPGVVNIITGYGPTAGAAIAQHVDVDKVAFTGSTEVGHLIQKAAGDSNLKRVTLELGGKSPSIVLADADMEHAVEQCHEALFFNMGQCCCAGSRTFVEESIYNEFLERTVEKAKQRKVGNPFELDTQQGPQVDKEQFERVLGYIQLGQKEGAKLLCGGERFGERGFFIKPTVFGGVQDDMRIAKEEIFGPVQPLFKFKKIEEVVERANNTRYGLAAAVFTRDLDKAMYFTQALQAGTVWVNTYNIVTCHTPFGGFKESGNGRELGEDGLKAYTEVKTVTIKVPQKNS
The settings on record: read-out: IC50 ALDH1B1; 200 μM propionaldehyde, 500 μM NAD+, 25 °C.

A further experiment addresses T7, ALDH1A2 (Homo sapiens, UniProt O94788).
T7 sequence (O94788 1-518): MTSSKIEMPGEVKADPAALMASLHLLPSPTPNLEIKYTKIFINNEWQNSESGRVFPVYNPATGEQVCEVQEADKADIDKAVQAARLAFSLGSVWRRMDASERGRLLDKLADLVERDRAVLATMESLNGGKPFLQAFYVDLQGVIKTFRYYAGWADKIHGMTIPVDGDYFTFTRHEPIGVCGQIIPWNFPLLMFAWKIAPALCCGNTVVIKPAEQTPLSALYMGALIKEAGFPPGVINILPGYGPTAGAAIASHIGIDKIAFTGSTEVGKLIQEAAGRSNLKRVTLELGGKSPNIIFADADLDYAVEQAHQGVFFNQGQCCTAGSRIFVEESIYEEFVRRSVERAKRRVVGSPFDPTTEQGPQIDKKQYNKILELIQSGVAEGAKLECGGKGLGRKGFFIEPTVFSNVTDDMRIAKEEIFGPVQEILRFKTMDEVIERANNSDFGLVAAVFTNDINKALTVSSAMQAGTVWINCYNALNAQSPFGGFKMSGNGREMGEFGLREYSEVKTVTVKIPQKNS
The settings on record: read-out: IC50 ALDH1A2; 100 μM propionaldehyde, 200 μM NAD+, 1% DMSO, pH 7.5, 25 °C.

The IC50 is the concentration needed to halve the response being measured. As to `CCCc1c(C)c2cc3c(C)coc3cc2oc1=O` [Compound 1], the IC50 at ALDH1L1 (rat) and at ALDH3A1 was > 100 µM each time.

Consider `CCCc1c(C)c2cc3c(C)c(C)oc3cc2oc1=O` [Compound 2], for which the IC50 at ALDH1L1 (rat) and on ALDH3A1 was > 100 µM in each case. Also, the “Mode of inhibition of ALDH2 versus varied NAD+” value at ALDH2 [1] is recorded as “competitive”.

For the compound `CCCc1cc(=O)oc2cc3oc(C)c(C)c3cc12` [Compound 7], the IC50 on ALDH1A1 [2] and on ALDH3A1 was > 100 µM each time.

In the case of `Cc1oc2cc3oc(=O)c4ccccc4c3cc2c1C` [Compound 9], the Emax on ALDH2 [3] was in the range of 50 to 60%. The IC50 at ALDH1A1 [2] and at ALDH3A1 was > 100 µM each time.

As to `Cc1oc2cc3oc(=O)c4c(c3cc2c1C)CCCC4` [Compound 10], the IC50 on ALDH3A1 and on ALDH1A3 was > 100 µM each time.

With `Cc1oc2cc3oc(=O)c4c(c3cc2c1C)CCC4` [Compound 11], the half-inhibitory concentration (IC50) on ALDH3A1 is > 100 µM.

In general, inhibition refers to the share of the control response that was lost under treatment. With `Cc1oc2cc3oc(=O)c(CCC(=O)N4CCCCC4)c(C)c3cc2c1C` [Compound 15], the inhibition at 10 µM at ALDH2 [3] (read-out: Inhibition of ALDH2 at 10 μM) and at ALDH1A1 [2] was > 90% in each case. Besides, on ALDH1A1 [4], the “Mode of inhibition of ALDH1A1 versus varied NAD+” value is on record as “uncompetitive”. Moreover, the 50% inhibitory concentration (IC50) at ALDH3A1 is > 100 µM. For the same compound, the “Mode of inhibition of ALDH2 versus varied NAD+” value on ALDH2 [1] is reported as “competitive”.

Turning to `Cc1c(C)c2c(cc(C)c3c(C)coc32)oc1=O` [Compound 23], the Emax at ALDH2 [3] lay within 50 to 60%. In addition, the IC50 at ALDH1A1 [2] and at ALDH3A1 was > 100 µM each time.

For `Cc1cc(=O)oc2cc(OCC#N)ccc12` [Compound 30], the “Mode of inhibition of ALDH1A1 versus varied NAD+” value on ALDH1A1 [4] is listed as “noncompetitive”. Moreover, the “Mode of inhibition of ALDH2 versus varied NAD+” value on ALDH2 [1] is “noncompetitive (mixed-type)”.

On to `CCN(CC)c1ccc2c(C)cc(=O)oc2c1` [Compound 32], for which, on ALDH1A1 [2], the “Fold selective for ALDH1A1 versus ALDH1A2” value came to 10 fold. On ALDH1A1 [2], the inhibition at 10 µM was ~85%. The “Mode of inhibition of ALDH1A1 versus varied acetaldehyde” value on ALDH1A1 [4] (1 mM NAD+, varied acetaldehyde) is recorded as “noncompetitive”. For the same compound, the “Mode of inhibition of ALDH1A1 versus varied NAD+” value on ALDH1A1 [4] was “noncompetitive”. The half-maximal inhibitory concentration (IC50) on ALDH1B1, on ALDH3A1 and on ALDH1A3 was > 100 µM in each case.

On to `Cc1c(Cc2ccccc2)c(=O)oc2cc(OS(C)(=O)=O)ccc12` [Compound 34], for which, at ALDH3A1, the IC50 is > 100 µM.

As for `C/C(=N\O)c1cc2cc(Br)ccc2oc1=O` [Compound 36], the half-inhibitory concentration (IC50) on ALDH1A1 [2], on ALDH1B1, at ALDH3A1 and on ALDH1A2 was > 100 µM throughout. In addition, the “Mode of inhibition of ALDH2 versus varied NAD+” value on ALDH2 [1] is “competitively”.

Consider `O=c1c(-c2ccc(O)cc2)coc2cc(O[C@@H]3O[C@H](CO)[C@@H](O)[C@H](O)[C@H]3O)ccc12` [Daidzin, daidzin, reference compound], for which the concentration for half-maximal inhibition (IC50) on ALDH1L1 (rat) and on ALDH3A1 was > 100 µM in each case.
